Reference: patent US6713048B2, “Δ9 tetrahydrocannabinol (Δ9 THC) solution metered dose inhalers and methods of use” (Virginia Commonwealth University, priority 1998, dated 2004)
Entries after “also recorded” stand apart in the source; their conditions may differ. Where two headings read alike, the source gives them in different places.

Assays:
Male ICR mice = test: Antinociception, tail-flick test; assay type: in vivo; conditions: for % MPE (mean ± S.E.): 20 min after treatment
Method: Male ICR mice, weighing approximately 30 g, obtained from Harlan Laboratories (Indianapolis, Ind.) were provided a light cycle of approximately 6 a.m. to 6 p.m., and the temperature remained approximately 23° C. The mice were placed in the lab and allowed to accommodate to the surroundings the evening prior to testing. Animals were allowed food (Harlan Teklab, Madison, Wis.) and water ad libitum.
The exposure chamber was a modified, inverted, 1-liter separation funnel, housed under a fume hood, which allowed four mice to be simultaneously exposed to the aerosol. Air was drawn through the chamber at a rate of approximately 60 ml/minute and filtered through glass wool (Corning Inc., Corning, N.Y.) and charcoal traps (SKC Inc., Eighty Four, Pa.) upon exiting the exposure chamber. Each actuation of Δ^9-THC or vehicle was delivered once per 5 s and the entire exposure period was 10 min. Mice were exposed to 20, 40 or 60 actuations of aerosolized Δ^9-THC or 60 actuations of vehicle.
Mice were placed in separate clear chambers (16.5 cm×25.5 cm×11.5 cm high) and assessed for hypomotility using a Digiscan Animal Activity Monitor (Omnitech Electronics Inc., Columbus, Ohio) in which the total number of photocell-light beam interruptions was counted. Antinociception was assessed in the tail-flick test (D'Amour, F. E., Smith, D. L., A method for determining loss of pain sensation, J Pharm Exp Ther, 72:74-79 (1941)) with heat intensity adjusted to give baseline latencies ranging from 2.0-4.0 seconds. A cut-off time of 10 seconds was used to limit tissue damage. Percent maximum possible effect (%MPE) was determined according to the following formula:
%MPE=[(test latency-baseline latency)/(cut-off-baseline latency)]*100
A ring-test procedure was used to assess catalepsy. The percent of time during a five minute observation period that mice remained motionless, except for movements related to respiration, while stationed on a 5.7 cm diameter ring stand 23 cm above the laboratory bench, was assessed. Body temperature was assessed by inserting a thermometer probe (Traceable Digital, Control Co., Friendswood, Tex.) 2.5 cm into the rectum. Subjects were assessed for baseline tail-flick latency and rectal temperature prior to drug or vehicle administration. […] Locomotor activity, tail-flick latency, catalepsy, and hypothermia were assessed 5, 20, 40, and 60 minutes, respectively, after aerosol exposure. An additional group of animals was given an i.v. injection of Δ^9-THC (0.3, 1, 3, or 10 mg/kg) or vehicle into a lateral tail vein and assessed in the tail-flick test 20 minutes later. All injections were given in a volume of 0.1 ml per 10 g animal weight.
The statistical analysis of the data was as follows. Data are represented by means±standard error (s.e.). Statistical analysis of the data was performed using Student t-tests (for the physiochemical comparisons of the aerosol), or ANOVA (for pharmacological studies), with significance set at p<0.05. Post hoc tests for significant ANOVAs included either Dunnett's test or Tukey/Kramer post-hoc analysis. […] A sample size of 6-8 mice was used in each group.

[1] = test system: healthy and asthmatic subjects; conditions: aerosolized Δ^9-THC from MDI, cited from earlier work
[2] = cited from earlier work
intra ocular pressure = conditions: intravenous THC 0.022 or 0.044 mg/kg; ten subjects with normal intra ocular pressure; cited from earlier work
[3] = test system: Spasticity related to multiple sclerosis; conditions: oral 10 or 15 mg THC, rectal 5 or 10 mg THC; 2 patients; cited from earlier work
[4] = MDI fine particle dose (Andersen Cascade Impactor); assay type: physicochemical; conditions: HFA 134a-ethanol MDI; 40° C., 82% relative humidity, 28 days
Method: A Δ^9 THC MDI was formulated and the physical properties of the aerosolized drug characterized. The mass of drug metered by the metering valve was determined following a single actuation (metered dose). The mass of drug delivered (emitted dose) was determined. The mass of particles with an aerodynamic diameter less than 4.7 μm was determined.
Appearance, metered dose reproducibility, emitted dose and particle size distribution of the Δ^9 THC MDI were investigated, before and after storage in an environment maintained at 40° C. and 82% relative humidity for a 28 day period. The mass of drug metered by the metering valve (metered dose, n=10) was determined by collecting single actuations directly from the valve in a puff absorber, using the methods of Byron, 1994.
THC was analyzed by LC-UV detection at 280 nm using a 75:25 acetonitrile: 1% acetic acid mobile phase for Δ^9-THC detection. A standard reverse phase C18 column was used.

[5] = intravenous, bolus, 5 mg (Ohlsson et al., 1980)
[6] = oral, in cookies, 20 mg (Ohlsson et al., 1980)
[7] = oral, sesame oil in gelatin capsules, 2.5, 5, or 10 mg (PDR, 1995)
[8] = smoking, 13 mg (Ohlsson et al., 1980)

With `CCCCCc1cc(O)c2c(c1)OC(C)(C)[C@@H]1CCC(C)=C[C@@H]21` (relative stereo) [Δ^9 THC, (6aR-trans)-6a,7,8,10a-tetrahydro-6,6,9-trimethyl-3-pentyl-6H-dibenzo[b,d]-pyran-1-ol] the ED50 (Male ICR mice; Mus musculus, intravenous, read-out: antinociceptive ED50 (95% C.L.)) was 2.4 mg/kg, the “antinociceptive ED50 (95% C.L.)” value (Male ICR mice; inhalation) was 30 (20-44) actuations and the “% MPE (mean ± S.E.)” value (Male ICR mice; inhalation, 20 actuations) was 37 ± 11 % MPE. For the same molecule, the “% MPE (mean ± S.E.)” value (Male ICR mice; inhalation, 40 actuations) was 58 ± 14 % MPE, the “% MPE (mean ± S.E.)” value (Male ICR mice; inhalation, 60 actuations) was 78 ± 11 % MPE and the “% MPE (mean ± S.E.)” value (Male ICR mice; intravenous, 1 mg/kg) was 31 ± 8 % MPE. For the same molecule, the “% MPE (mean ± S.E.)” value (Male ICR mice; intravenous, 3 mg/kg) was 70 ± 14 % MPE, the “% MPE (mean ± S.E.)” value (Male ICR mice; intravenous, 10 mg/kg) was 67 ± 11 % MPE and the “systemic side effects (increased heart rate, subjective reports of being 'high')” value ([1]; healthy patients, at higher doses) was “substantial systemic side effects”. The “bronchial effect in healthy patients” value ([1]; healthy patients) was “bronchodilation was seen”, the “bronchial effect in asthmatic patients” value ([1]; some asthmatic patients) was “bronchoconstriction occurred” and the “% Dose in Plasma” value [2, 5] was 100%. For the same molecule, the “Onset of Pharmacological Action” value [2, 5] was 10 min, the “Peak Plasma Levels (time)” value [2, 5] was 3 min and the “% Dose in Plasma” value [2, 6] was 4 to 12%. For the same molecule, the “Onset of Pharmacological Action” value [2, 6] was 120-180 min, the “Peak Plasma Levels (time)” value [2, 6] was 60 to 90 min and the “% Dose in Plasma” value [2, 7] was 10 to 20%. The “Onset of Pharmacological Action” value [2, 7] was 0.5 to 1 hour, the “Peak Plasma Levels (time)” value [2, 7] was 120 to 480 min and the “% Dose in Plasma” value ([2]; smoking (THC lost to side stream smoke and pyrolysis), 13 mg (Ohlsson et al., 1980)) was 8 to 24%. The “Onset of Pharmacological Action” value [2, 8] was 10 min, the “Peak Plasma Levels (time)” value [2, 8] was 3 min and the “mean decrease of intra ocular pressure” value (intra ocular pressure) was “presser by mean of 37%”. The “passive mobility and walking ability” value [3] was “Improvement in passive” and the “deterioration/degradation of Δ^9-THC content on storage” value [4] was “no deterioration; also recorded: no significant degradation”.
